Source: patent US7786083B2, “Metastin derivatives and use thereof” (Takeda Pharmaceutical Company Limited, priority 2006, dated 2010)
*1 amine or outer side, *2 acyl side, *3 side chain or, on linkers, in order; H or OH if unused. Where a SMILES comes first, the peptide text is derived from it. [ ]: non-standard residue; d: D form. Glyψ(E-CHCH)Leu = CC(C)C[C@H](/C=C/CN[*:1])C(=O)[*:2]; Phe(3-Me) = Cc1cccc(C[C@H](N)C(=O)O)c1; Phe(4-Me) = Cc1ccc(C[C@H](N)C(=O)O)cc1; X1 = CC(C)C[C@H](CCCN[*:1])C(=O)[*:2]; Phe(2-Me) = Cc1ccccc1C[C@H](N)C(=O)O; Arg(Me) = CNC(=N)NCCC[C@H](N)C(=O)O; Dap(CONH2) = NC(=O)NC[C@H](N)C(=O)O; Ala(cPr) = N[C@@H](CC1CC1)C(=O)O; Hyp = O=C(O)[C@@H]1C[C@@H](O)CN1; αMeF = C[C@](N)(Cc1ccccc1)C(=O)O; Cha = N[C@@H](CC1CCCCC1)C(=O)O

tested on: metastin receptors; experiment: Measurement of agonist activity by assaying changes in intracellular calcium ion level (FLIPR, Fluo-4 NW); type: cell-based, human; details: specific activity of the EC50 of a test compound based on the EC50 of Metastin (45-54), metastin receptor expression CHO cells
Procedure: 1) Preparation of Human Metastin and Rat Metastin Stable Expression Cell Lines
Human metastin and rat metastin stable expression cell lines were obtained by transfecting the expression plasmid for animal cells into CHO/dhfr^− cells using CellPhect Transfection Kit (manufactured by GE Healthcare). First, 240 μL of Buffer A (attached to CellPhect Transfection Kit) was added to 9.6 μg of plasmid DNA dissolved in 240 μL of distilled water followed by stirring. After the mixture was settled for 10 minutes, 480 μL of Buffer B (attached to CellPhect Transfection Kit) was added to the mixture, which was vigorously stirred to form liposomes containing the DNA. Then, 4×10^5 CHO/dhfr^− cells (obtained from ATCC) were inoculated on a 60 mm Petri dish. After culturing the cells in Ham's F-12 medium (manufactured by Nissui Seiyaku Co., Ltd.) supplemented with 10% fetal bovine serum (manufactured by BIO […], Inc.) at 37° C. for 2 days in 5% carbon dioxide gas, […] of the liposomes were dropwise added to the cells on the Petri dish. After culturing the cells in a CO2 incubator (5% CO2, 37° C.) for 6 hours, the cells were washed twice with serum-free Ham's F-12 medium and 3 mL of 15% glycerol was added to the cells on the Petri dish followed by treatment for 2 minutes. The cells were again washed twice with serum-free Ham's F-12 medium followed by incubation in Ham's F-12 medium supplemented with 10% fetal bovine serum in a CO2 incubator (5% CO2, 37° C.) for 15 hours. The cells were dispersed by trypsin treatment to recover from the Petri dish. The recovered cells were inoculated on a 6-well plate in 1.25×10^4 cells each/well and incubation was initiated in a CO2 incubator (5% CO2, 37° C.) in Dulbecco's modified Eagle medium (DMEM, manufactured by Nissui Seiyaku) containing 10% dialyzed fetal bovine serum (manufactured by JRH BIOSCIENCES, Inc.). The plasmid-transfected CHO transformants grew in the medium but the non-transfected cells gradually died, accordingly the medium was exchanged on Days 1 and 2 after the initiation of incubation to remove the dead cells. Approximately 20 colonies of the CHO transformants that kept growing on Days 8 to 10 after the incubation were isolated. From the cells in these colonies, cells showing high reactivity with the ligand peptide metastin (hereinafter merely referred to as h175 KB19 and h175 KB29 strains) were selected to provide for the following experiment.
Human metastin expression CHO cell line (h175 KB19 strain is described in a separate section) and rat metastin expression CHO cell line (h175 KB29 strain is described in a separate section) were seeded in a 96-well plate (type 3904, manufactured by Corning) at 3×10^4 cells/well, followed by incubation in a CO2 incubator (5% CO2, 37° C.) for 24 hours. For the medium, MEMα medium (nucleic acid-free, manufactured by Nikken Bio Medical Laboratory) supplemented with dialyzed 10% fetal bovine serum (manufactured by Thermo, MultiSer) was used.
3) Loading with Fluo-4 NW in Cells
As an assay buffer, 1× Hanks' balanced salt solution (HBSS, manufactured by GIBCO) supplemented with 0.1% BSA, 20 mM HEPES (pH 7.4, manufactured by GIBCO) and 1 mM Probenecid (manufactured by Molecular Probes) was prepared. The medium in the wells of the cell-seeded plate was removed and 100 μL each of the assay buffer (kept warm at 37° C.) was added to each well. After 10 mL of the assay buffer (the volume for assaying two plates) was charged in one Fluo-4NW dye mix (Component A, Fluo-4 NW calcium assay kit (starter pack), manufactured by Molecular Probes) bottle, the mixture was gently stirred to prepare the Fluo-4 NW loading solution. This loading solution was charged in each well by 50 μl each and reacted in a CO2 incubator (5% CO2, 37° C.) for 30 minutes for loading with Fluo-4 NW into the cells. Subsequently, the cells were settled at room temperature (25° C.) for 15 minutes and then used for assay.
4) Measurement of Agonist Activity […]

| Specific Activity | SMILES |
| --- | --- |
| 3.8 | CNC(=N)NCCC[C@H](NC(=O)[C@H](CC(C)C)NC(=O)CNC(=O)[C@](C)(Cc1ccccc1)NC(=O)[C@@H](NC(=O)[C@H](CC(N)=O)NC(=O)[C@@H]1C[C@@H](O)CN1C(=O)[C@@H](Cc1ccc(O)cc1)NC(C)=O)[C@@H](C)O)C(=O)N[C@@H](Cc1c[nH]c2ccccc12)C(N)=O [Compound No. 869, des(1)-Ac-[D-Tyr2,Hyp3,Thr5,αMePhe6,Arg(Me)9,Trp10]MS10] (Ac-[dY][Hyp]NT[αMeF]GL[Arg(Me)]W-NH2) |
| 0.7 | CNC(=N)NCCC[C@H](NC(=O)[C@H](CC(C)C)NC(=O)CNC(=O)[C@H](Cc1ccccc1C)NC(=O)[C@@H](NC(=O)[C@H](CC(N)=O)NC(=O)[C@@H]1C[C@@H](O)CN1C(=O)[C@@H](Cc1ccc(O)cc1)NC(C)=O)[C@@H](C)O)C(=O)N[C@@H](Cc1c[nH]c2ccccc12)C(N)=O [Compound No. 871, des(1)-Ac-[D-Tyr2,Hyp3,Thr5,Phe(2Me)6,Arg(Me)9,Trp10]MS10] (Ac-[dY][Hyp]NT[Phe(2-Me)]GL[Arg(Me)]W-NH2) |
| 0.8 | CNC(=N)NCCC[C@H](NC(=O)[C@H](CC(C)C)NC(=O)CNC(=O)[C@H](Cc1cccc(C)c1)NC(=O)[C@@H](NC(=O)[C@H](CC(N)=O)NC(=O)[C@@H]1C[C@@H](O)CN1C(=O)[C@@H](Cc1ccc(O)cc1)NC(C)=O)[C@@H](C)O)C(=O)N[C@@H](Cc1c[nH]c2ccccc12)C(N)=O [Compound No. 873, des(1)-Ac-[D-Tyr2,Hyp3,Thr5,Phe(3Me)6,Arg(Me)9,Trp10]MS10] (Ac-[dY][Hyp]NT[Phe(3-Me)]GL[Arg(Me)]W-NH2) |
| 0.9 | CNC(=N)NCCC[C@H](NC(=O)[C@H](CC(C)C)NC(=O)CNC(=O)[C@H](Cc1ccc(C)cc1)NC(=O)[C@@H](NC(=O)[C@H](CC(N)=O)NC(=O)[C@@H]1C[C@@H](O)CN1C(=O)[C@@H](Cc1ccc(O)cc1)NC(C)=O)[C@@H](C)O)C(=O)N[C@@H](Cc1c[nH]c2ccccc12)C(N)=O [Compound No. 875, des(1)-Ac-[D-Tyr2,Hyp3,Thr5,Phe(4Me)6,Arg(Me)9,Trp10]MS10] (Ac-[dY][Hyp]NT[Phe(4-Me)]GL[Arg(Me)]W-NH2) |
| 0.5 | CNC(=N)NCCC[C@H](NC(=O)[C@H](CC(C)C)NC(=O)CNC(=O)[C@H](Cc1ccccc1)NC(=O)[C@@H](NC(=O)[C@H](CNC(N)=O)NC(=O)[C@@H]1C[C@@H](O)CN1C(=O)[C@@H](Cc1ccc(O)cc1)NC(C)=O)[C@@H](C)O)C(=O)N[C@@H](Cc1c[nH]c2ccccc12)C(N)=O [Compound No. 885, des(1)-Ac-[D-Tyr2,Hyp3,Alb4,Thr5,Arg(Me)9,Trp10]MS10] (Ac-[dY][Hyp][Dap(CONH2)]TFGL[Arg(Me)]W-NH2) |
| 0.6 | CNC(=N)NCCC[C@H](NC(=O)[C@@H](/C=C/CNC(=O)[C@H](Cc1ccccc1)NC(=O)[C@@H](NC(=O)[C@H](CC(N)=O)NC(=O)[C@@H]1C[C@@H](O)CN1C(=O)[C@@H](Cc1ccc(O)cc1)NC(C)=O)[C@@H](C)O)CC(C)C)C(=O)N[C@@H](Cc1c[nH]c2ccccc12)C(N)=O [Compound No. 892, des(1)-Ac-[D-Tyr2,Hyp3,Thr5,Gly7Ψ((E)CH═CH)Leu8,Arg[(Me)9,Trp10]MS10] (Ac-[dY][Hyp]NTF[Glyψ(E-CHCH)Leu][Arg(Me)]W-NH2) |
| 0.8 | CNC(=N)NCCC[C@H](NC(=O)[C@@H](CCCNC(=O)[C@H](Cc1ccccc1)NC(=O)[C@@H](NC(=O)[C@H](CC(N)=O)NC(=O)[C@@H]1C[C@@H](O)CN1C(=O)[C@@H](Cc1ccc(O)cc1)NC(C)=O)[C@@H](C)O)CC(C)C)C(=O)N[C@@H](Cc1c[nH]c2ccccc12)C(N)=O [Compound No. 893, des(1)-Ac-[D-Tyr2,Hyp3,Thr5,Gly7Ψ((E)CH2CH2)Leu8,Arg(Me)9,Trp10]MS10] (Ac-[dY][Hyp]NTF[X1][Arg(Me)]W-NH2) |
| 0.5 | CNC(=N)NCCC[C@H](NC(=O)[C@H](CC1CC1)NC(=O)CNC(=O)[C@H](CC1CCCCC1)NC(=O)[C@@H](NC(=O)[C@H](CC(N)=O)NC(=O)[C@@H]1C[C@@H](O)CN1C(=O)[C@@H](Cc1ccc(O)cc1)NC(C)=O)[C@@H](C)O)C(=O)N[C@@H](Cc1c[nH]c2ccccc12)C(N)=O [Compound No. 894, des(1)-Ac-[D-Tyr2,Hyp3,Thr5,Cha6,Ala(cPr)8,Arg(Me)9,Trp10]MS10] (Ac-[dY][Hyp]NT[Cha]G[Ala(cPr)][Arg(Me)]W-NH2) |
| 0.4 | CNC(=N)NCCC[C@H](NC(=O)[C@H](CC1CC1)NC(=O)CNC(=O)[C@H](CC1CCCCC1)NC(=O)[C@@H](NC(=O)[C@H](CC(N)=O)NC(=O)[C@H](CCC(=O)O)NC(=O)[C@@H](Cc1ccc(O)cc1)NC(C)=O)[C@@H](C)O)C(=O)N[C@@H](Cc1c[nH]c2ccccc12)C(N)=O [Compound No. 895, des(1)-Ac-[D-Tyr2,Glu3,Thr5,Cha6,Ala(cPr)8,Arg(Me)9,Trp10]MS10] (Ac-[dY]ENT[Cha]G[Ala(cPr)][Arg(Me)]W-NH2) |
| 0.6 | CNC(=N)NCCC[C@H](NC(=O)[C@@H](/C=C/CNC(=O)[C@H](CC1CCCCC1)NC(=O)[C@@H](NC(=O)[C@H](CC(N)=O)NC(=O)[C@@H]1C[C@@H](O)CN1C(=O)[C@@H](Cc1ccc(O)cc1)NC(C)=O)[C@@H](C)O)CC(C)C)C(=O)N[C@@H](Cc1c[nH]c2ccccc12)C(N)=O [Compound No. 902, des(1)-Ac-[D-Tyr2,Hyp3,Thr5,Cha6,Gly7Ψ((E)CH═CH)Leu8,Arg(Me)9,Trp10]MS10] (Ac-[dY][Hyp]NT[Cha][Glyψ(E-CHCH)Leu][Arg(Me)]W-NH2) |
| 0.4 | CNC(=N)NCCC[C@H](NC(=O)[C@@H](/C=C/CNC(=O)[C@H](CC1CCCCC1)NC(=O)[C@@H](NC(=O)[C@H](CNC(N)=O)NC(=O)[C@@H]1C[C@@H](O)CN1C(=O)[C@@H](Cc1ccc(O)cc1)NC(C)=O)[C@@H](C)O)CC(C)C)C(=O)N[C@@H](Cc1c[nH]c2ccccc12)C(N)=O [Compound No. 903, des(1)-Ac-[D-Tyr2,Hyp3,Alb4,Thr5,Cha6,Gly7Ψ((E)CH═CH)Leu8,Arg(Me)9,Trp10]MS10] (Ac-[dY][Hyp][Dap(CONH2)]T[Cha][Glyψ(E-CHCH)Leu][Arg(Me)]W-NH2) |
| 0.5 | CNC(=N)NCCC[C@H](NC(=O)[C@@H](/C=C/CNC(=O)[C@H](CC1CCCCC1)NC(=O)[C@@H](NC(=O)[C@H](CC(N)=O)NC(=O)[C@H](CCC(=O)O)NC(=O)[C@@H](Cc1ccc(O)cc1)NC(C)=O)[C@@H](C)O)CC(C)C)C(=O)N[C@@H](Cc1c[nH]c2ccccc12)C(N)=O [Compound No. 904, des(1)-Ac-[D-Tyr2,Glu3,Thr5,Cha6,Gly7Ψ((E)CH═CH)Leu8,Arg(Me)9,Trp10]MS10] (Ac-[dY]ENT[Cha][Glyψ(E-CHCH)Leu][Arg(Me)]W-NH2) |
| 0.5 | CNC(=N)NCCC[C@H](NC(=O)[C@@H](/C=C/CNC(=O)[C@H](CC1CCCCC1)NC(=O)[C@@H](NC(=O)[C@H](CNC(N)=O)NC(=O)[C@H](CCC(=O)O)NC(=O)[C@@H](Cc1ccc(O)cc1)NC(C)=O)[C@@H](C)O)CC(C)C)C(=O)N[C@@H](Cc1c[nH]c2ccccc12)C(N)=O [Compound No. 905, des(1)-Ac-[D-Tyr2,Glu3,Alb4,Thr5,Cha6,Gly7Ψ((E)CH═CH)Leu8,Arg(Me)9,Trp10]MS10] (Ac-[dY]E[Dap(CONH2)]T[Cha][Glyψ(E-CHCH)Leu][Arg(Me)]W-NH2) |
| 0.6 | CNC(=N)NCCC[C@H](NC(=O)[C@@H](/C=C/CNC(=O)[C@H](Cc1ccccc1)NC(=O)[C@@H](NC(=O)[C@H](CNC(N)=O)NC(=O)[C@@H]1C[C@@H](O)CN1C(=O)[C@@H](Cc1ccc(O)cc1)NC(C)=O)[C@@H](C)O)CC(C)C)C(=O)N[C@@H](Cc1c[nH]c2ccccc12)C(N)=O [Compound No. 906, des(1)-Ac-[D-Tyr2,Hyp3,Alb4,Gly7Ψ((E)CH═CH)Leu8,Arg(Me)9,Trp10]MS10] (Ac-[dY][Hyp][Dap(CONH2)]TF[Glyψ(E-CHCH)Leu][Arg(Me)]W-NH2) |
